Reference: the supplement of paper PMC10307832

Tests used:
Assay in all cases: relative viability (nuclei count vs DMSO), 5 days (fraction); higher = more cells survive
[1] = compound: Cc1ccc(Nc2nccc(N(C)c3ccc4c(C)n(C)nc4c3)n2)cc1S(N)(=O)=O [Pazopanib] + CC(C)C[C@H](NC(=O)[C@H](Cc1ccccc1)NC(=O)c1cnccn1)B(O)O [Bortezomib] (partner 0.002 µM)
Procedure, shortened: (§1)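 Nuclei were stained with Hoechst during a one-step fixation (final 0.05% Triton X-100, 1% formaldehyde, 1 ug/ml Hoechst) carried out 5 days after dosing, then counted on 4× images. The cells, lung cancer lines in 1536-well plates, had been dosed by pin tool the day after seeding with one drug alone or a fixed anchor-drug dose plus five library-drug doses (not always all listed) in √10 steps. Relative viability is the nuclei count in treated wells divided by that in vehicle wells, and each value is the median of duplicate plates.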

[2] = compound: Cc1ccc(C(=O)Nc2ccc(CN3CCN(C)CC3)c(C(F)(F)F)c2)cc1C#Cc1cnc2cccnn12 [Ponatinib] + CC(=O)c1c(C)c2cnc(Nc3ccc(N4CCNCC4)cn3)nc2n(C2CCCC2)c1=O [Palbociclib] (partner 0.5 µM)
Procedure, shortened: as §1

[3] = compound: Cc1ccc(Nc2nccc(N(C)c3ccc4c(C)n(C)nc4c3)n2)cc1S(N)(=O)=O [Pazopanib] + O=C(CCCCCCC(=O)Nc1ccccc1)NO [Vorinostat] (partner 1 µM)
Procedure, shortened: as §1

[4] = compound: Cc1ccc(C(=O)Nc2ccc(CN3CCN(C)CC3)c(C(F)(F)F)c2)cc1C#Cc1cnc2cccnn12 [Ponatinib] + C[C@@H](Oc1cc(-c2cnn(C3CCNCC3)c2)cnc1N)c1c(Cl)ccc(F)c1Cl [Crizotinib] (partner 1 µM)
Procedure, shortened: as §1

Cell Line | relative viability ([1]; first compound 0.01 µM) | relative viability ([1]; first compound 0.03162 µM) | relative viability ([1]; first compound 0.1 µM) | relative viability ([1]; first compound 0.3162 µM) | relative viability ([1]; first compound 1 µM) | relative viability ([2]; first compound 0.002 µM) | relative viability ([2]; first compound 0.006325 µM) | relative viability ([2]; first compound 0.06325 µM) | relative viability ([2]; first compound 0.2 µM) | relative viability ([3]; first compound 0.01 µM) | relative viability ([3]; first compound 0.03162 µM) | relative viability ([3]; first compound 0.1 µM) | relative viability ([3]; first compound 0.3162 µM) | relative viability ([3]; first compound 1 µM) | relative viability ([4]; first compound 0.002 µM) | relative viability ([4]; first compound 0.006325 µM) | relative viability ([4]; first compound 0.06325 µM) | relative viability ([4]; first compound 0.2 µM)
LXF-289 | 0.998 | 1.02 | 0.993 | 0.91 | 0.956 | 0.606 | 0.613 | 0.6 | 0.611 | 0.767 | 0.798 | 0.779 | 0.732 | 0.812 | 0.769 | 0.825 | 0.821 | 0.792
NCI-H23 | 0.813 | 1.1 | 1.11 | 1.07 | 1.41 | 0.521 | 0.495 | 0.683 | 0.509 | 0.431 | 0.641 | 0.628 | 0.661 | 0.782 | 0.471 | 0.488 | 0.504 | 0.558
NCI-H322M | 1.09 | 1.34 | 1.35 | 1.32 | 1.21 | 0.524 | 0.501 | 0.501 | 0.471 | 0.916 | 0.989 | 0.765 | 0.948 | 0.995 | 0.913 | 0.961 | 0.816 | 0.66
NCI-H441 | 0.377 | 0.384 | 0.665 | 0.324 | 0.434 | 0.238 | 0.229 | 0.252 | 0.209 | 0.736 | 1.06 | 0.865 | 0.838 | 0.645 | 0.576 | 0.632 | 0.835 | 0.607
NCI-H460 | 1.03 | 1.23 | 1.2 | 1.14 | 1.13 | 0.218 | 0.212 | 0.223 | 0.177 | 0.719 | 0.765 | 0.749 | 0.677 | 0.723 | 0.764 | 0.863 | 1.02 | 0.908
NCI-H520 | – | 0.612 | 0.73 | 0.744 | 0.737 | 0.215 | 0.207 | 0.172 | 0.16 | 0.678 | 0.717 | 0.742 | 0.581 | 0.549 | 0.682 | 0.843 | 0.841 | 0.581
NCI-H647 | 0.822 | 0.93 | 0.963 | 1.07 | 1.05 | 0.358 | 0.345 | 0.47 | 0.438 | 0.443 | 0.59 | 0.706 | 0.394 | 0.421 | 0.851 | 1.07 | 1.12 | 0.989
NCI-H650 | 0.696 | 0.861 | 0.804 | 0.935 | 0.812 | 0.313 | 0.321 | 0.295 | 0.314 | 0.381 | 0.466 | 0.398 | 0.364 | 0.485 | 0.598 | 0.663 | 0.695 | 0.605
